Experiment [1] has as its target Serine/threonine-protein phosphatase PP1-alpha catalytic subunit (Homo sapiens, UniProt P62136). In words: PP1 phosphatase inhibitors, dose response, biochemical, fluorescence (AID 2394).
For experiment [2], the target named is T1, Sentrin-specific protease 7 (Homo sapiens, UniProt Q9BQF6).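 Note: Luminescence-based dose-response confirmation of ultra-high-throughput screening hits, measuring inhibition of SENP7.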
T1 sequence (Q9BQF6 whole entry): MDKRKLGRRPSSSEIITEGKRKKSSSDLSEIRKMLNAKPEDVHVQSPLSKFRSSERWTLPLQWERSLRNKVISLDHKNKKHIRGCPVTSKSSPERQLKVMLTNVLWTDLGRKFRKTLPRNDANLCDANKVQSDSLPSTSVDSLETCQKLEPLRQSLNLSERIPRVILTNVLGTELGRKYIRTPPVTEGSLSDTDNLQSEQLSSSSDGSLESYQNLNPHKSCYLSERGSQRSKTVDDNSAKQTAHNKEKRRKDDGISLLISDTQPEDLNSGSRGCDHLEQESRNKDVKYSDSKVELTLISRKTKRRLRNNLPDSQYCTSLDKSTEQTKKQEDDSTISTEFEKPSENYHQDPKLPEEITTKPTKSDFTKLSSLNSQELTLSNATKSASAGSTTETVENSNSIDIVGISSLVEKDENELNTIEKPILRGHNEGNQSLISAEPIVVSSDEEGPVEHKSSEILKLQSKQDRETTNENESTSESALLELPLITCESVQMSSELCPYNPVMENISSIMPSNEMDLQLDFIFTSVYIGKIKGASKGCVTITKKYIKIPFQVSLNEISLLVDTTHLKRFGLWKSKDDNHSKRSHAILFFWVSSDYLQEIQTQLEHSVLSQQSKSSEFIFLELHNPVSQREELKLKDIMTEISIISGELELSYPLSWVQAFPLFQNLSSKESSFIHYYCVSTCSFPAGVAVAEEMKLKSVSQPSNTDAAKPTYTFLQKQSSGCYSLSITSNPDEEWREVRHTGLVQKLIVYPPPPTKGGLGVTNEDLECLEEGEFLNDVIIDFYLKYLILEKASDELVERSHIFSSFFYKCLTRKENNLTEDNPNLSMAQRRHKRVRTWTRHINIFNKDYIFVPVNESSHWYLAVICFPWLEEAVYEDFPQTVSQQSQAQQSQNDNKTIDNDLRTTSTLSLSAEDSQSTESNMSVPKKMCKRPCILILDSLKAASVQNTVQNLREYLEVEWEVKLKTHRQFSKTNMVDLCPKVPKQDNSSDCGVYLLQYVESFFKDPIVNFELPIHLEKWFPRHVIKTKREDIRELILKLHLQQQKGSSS
Format: functional.

The subject of experiment [3] is BJ. The experiment in a line: cytotoxicity toward BJ-TERT-LT-ST fibroblasts, dose response, cell-based, RAS-independent, luminescence (AID 1935).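 Note: BJ fibroblasts immortalized with TERT plus LT and ST oncogenes.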 Format: functional. The following applies: Homo sapiens.
The subject of experiment [4] is BJ. In words: cytotoxicity toward Ras-transformed BJeLR fibroblasts, dose response, cell-based, alamar blue fluorescence, cherrypicked samples (AID 2631).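 Note: confirmatory dose-response assay in RAS-dependent BJ fibroblasts engineered with TERT, LT and ST, with cytotoxicity read by fluorescence.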 The following applies: Homo sapiens. It is filed as functional.
The subject of experiment [5] is HEK293. In words: optical interference in Abeta FP readout, dose response, artefact control for IDE activator project, biochemical, fluorescence polarization (AID 588442). The following applies: Homo sapiens. It is filed as functional, cell-based. In general terms: In fluorescence polarisation assays a small probe gives low polarisation when free and higher when bound to something large.

The target in experiment [6] is T2, Hexokinase HKDC1 (Homo sapiens, UniProt Q2TB90).
T2 sequence (Q2TB90 whole entry): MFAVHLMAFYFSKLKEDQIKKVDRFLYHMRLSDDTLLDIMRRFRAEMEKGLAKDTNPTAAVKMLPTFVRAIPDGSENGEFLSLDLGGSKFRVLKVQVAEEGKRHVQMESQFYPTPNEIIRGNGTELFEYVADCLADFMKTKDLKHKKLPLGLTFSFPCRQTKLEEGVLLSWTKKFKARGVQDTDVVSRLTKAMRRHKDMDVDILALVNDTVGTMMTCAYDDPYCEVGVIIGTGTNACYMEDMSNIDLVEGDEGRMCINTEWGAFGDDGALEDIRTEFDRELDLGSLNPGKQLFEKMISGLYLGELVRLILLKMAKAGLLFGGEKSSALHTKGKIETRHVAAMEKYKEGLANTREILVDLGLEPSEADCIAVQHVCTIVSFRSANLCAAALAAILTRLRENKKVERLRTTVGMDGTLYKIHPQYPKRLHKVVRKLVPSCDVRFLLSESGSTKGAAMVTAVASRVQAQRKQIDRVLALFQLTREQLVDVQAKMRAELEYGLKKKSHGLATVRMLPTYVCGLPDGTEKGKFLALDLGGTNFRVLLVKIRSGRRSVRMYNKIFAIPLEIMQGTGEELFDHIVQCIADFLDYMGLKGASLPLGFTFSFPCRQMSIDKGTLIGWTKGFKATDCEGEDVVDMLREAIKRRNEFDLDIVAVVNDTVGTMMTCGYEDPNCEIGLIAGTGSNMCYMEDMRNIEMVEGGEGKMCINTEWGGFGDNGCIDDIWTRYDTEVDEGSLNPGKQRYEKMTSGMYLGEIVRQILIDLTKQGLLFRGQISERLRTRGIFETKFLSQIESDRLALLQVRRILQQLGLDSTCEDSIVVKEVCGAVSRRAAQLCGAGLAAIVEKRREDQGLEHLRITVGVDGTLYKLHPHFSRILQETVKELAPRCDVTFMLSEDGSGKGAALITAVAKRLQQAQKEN
In words: HKDC1 hexokinase inhibitors, dose response, biochemical, W721R variant (AID 504729). Format: functional.

The target of experiment [7] is Ribosomal protein S6 kinase alpha-5 (Homo sapiens, UniProt O75582). It is filed as functional.
Experiment [8] deals with Receptor tyrosine-protein kinase erbB-2 (Homo sapiens, UniProt P04626). In words: Navigating the Kinome. Panel member name: ERBB2. It is filed as functional.
Chain of Receptor tyrosine-protein kinase erbB-2 (P04626 whole entry): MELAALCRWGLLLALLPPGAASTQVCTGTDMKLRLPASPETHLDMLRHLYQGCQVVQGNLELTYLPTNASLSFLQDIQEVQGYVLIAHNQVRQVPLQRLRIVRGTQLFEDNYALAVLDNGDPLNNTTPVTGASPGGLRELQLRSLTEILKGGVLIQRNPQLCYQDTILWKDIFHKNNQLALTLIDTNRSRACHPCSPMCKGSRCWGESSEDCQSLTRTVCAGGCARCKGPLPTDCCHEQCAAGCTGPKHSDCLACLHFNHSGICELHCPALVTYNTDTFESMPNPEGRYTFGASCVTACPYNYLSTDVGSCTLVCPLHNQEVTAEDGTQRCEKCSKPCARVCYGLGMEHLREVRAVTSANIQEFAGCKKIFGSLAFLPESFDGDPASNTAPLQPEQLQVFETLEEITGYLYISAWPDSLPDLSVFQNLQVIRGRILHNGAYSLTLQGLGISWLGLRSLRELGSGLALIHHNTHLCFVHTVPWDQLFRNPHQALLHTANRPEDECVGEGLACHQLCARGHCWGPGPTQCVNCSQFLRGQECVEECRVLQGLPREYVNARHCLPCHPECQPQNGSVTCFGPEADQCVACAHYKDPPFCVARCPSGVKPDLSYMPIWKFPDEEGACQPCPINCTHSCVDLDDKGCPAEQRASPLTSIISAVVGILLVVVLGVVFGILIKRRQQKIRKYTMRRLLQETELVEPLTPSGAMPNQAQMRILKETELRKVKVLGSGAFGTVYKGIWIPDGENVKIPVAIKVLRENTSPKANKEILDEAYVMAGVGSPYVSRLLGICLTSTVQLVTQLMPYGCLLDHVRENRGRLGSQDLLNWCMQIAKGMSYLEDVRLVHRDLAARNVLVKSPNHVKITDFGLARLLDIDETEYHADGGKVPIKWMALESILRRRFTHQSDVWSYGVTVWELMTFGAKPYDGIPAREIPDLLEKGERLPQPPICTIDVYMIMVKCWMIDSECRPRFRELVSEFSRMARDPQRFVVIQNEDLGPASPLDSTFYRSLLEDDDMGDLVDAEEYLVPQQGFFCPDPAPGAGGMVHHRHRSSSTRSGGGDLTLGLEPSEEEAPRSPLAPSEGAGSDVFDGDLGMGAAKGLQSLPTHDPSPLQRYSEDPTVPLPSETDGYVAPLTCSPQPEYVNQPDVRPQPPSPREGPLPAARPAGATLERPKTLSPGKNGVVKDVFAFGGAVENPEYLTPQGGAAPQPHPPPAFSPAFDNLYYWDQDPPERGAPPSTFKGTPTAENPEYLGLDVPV
Experiment [9] addresses Non-receptor tyrosine-protein kinase TYK2 (Homo sapiens, UniProt P29597). Format: functional.
Experiment [10] addresses Serine/threonine-protein kinase Nek4 (Homo sapiens, UniProt P51957). It is filed as functional.
Experiment [11] addresses Serine/threonine-protein kinase D2 (Homo sapiens, UniProt Q9BZL6). It is filed as functional.
The target of experiment [12] is Serine/threonine-protein kinase N2 (Homo sapiens, UniProt Q16513). It is filed as functional.
The target in experiment [13] is Serine/threonine-protein kinase Chk2 (Homo sapiens, UniProt O96017). Format: functional.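 Note: CHEK2 entry within a kinome-wide screening panel.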
The target in experiment [14] is Rho-associated protein kinase 1 (Homo sapiens, UniProt Q13464). Format: functional.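 Note: measured within a broad kinome-wide panel profiling many kinases.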
Chain of Rho-associated protein kinase 1 (Q13464 whole entry): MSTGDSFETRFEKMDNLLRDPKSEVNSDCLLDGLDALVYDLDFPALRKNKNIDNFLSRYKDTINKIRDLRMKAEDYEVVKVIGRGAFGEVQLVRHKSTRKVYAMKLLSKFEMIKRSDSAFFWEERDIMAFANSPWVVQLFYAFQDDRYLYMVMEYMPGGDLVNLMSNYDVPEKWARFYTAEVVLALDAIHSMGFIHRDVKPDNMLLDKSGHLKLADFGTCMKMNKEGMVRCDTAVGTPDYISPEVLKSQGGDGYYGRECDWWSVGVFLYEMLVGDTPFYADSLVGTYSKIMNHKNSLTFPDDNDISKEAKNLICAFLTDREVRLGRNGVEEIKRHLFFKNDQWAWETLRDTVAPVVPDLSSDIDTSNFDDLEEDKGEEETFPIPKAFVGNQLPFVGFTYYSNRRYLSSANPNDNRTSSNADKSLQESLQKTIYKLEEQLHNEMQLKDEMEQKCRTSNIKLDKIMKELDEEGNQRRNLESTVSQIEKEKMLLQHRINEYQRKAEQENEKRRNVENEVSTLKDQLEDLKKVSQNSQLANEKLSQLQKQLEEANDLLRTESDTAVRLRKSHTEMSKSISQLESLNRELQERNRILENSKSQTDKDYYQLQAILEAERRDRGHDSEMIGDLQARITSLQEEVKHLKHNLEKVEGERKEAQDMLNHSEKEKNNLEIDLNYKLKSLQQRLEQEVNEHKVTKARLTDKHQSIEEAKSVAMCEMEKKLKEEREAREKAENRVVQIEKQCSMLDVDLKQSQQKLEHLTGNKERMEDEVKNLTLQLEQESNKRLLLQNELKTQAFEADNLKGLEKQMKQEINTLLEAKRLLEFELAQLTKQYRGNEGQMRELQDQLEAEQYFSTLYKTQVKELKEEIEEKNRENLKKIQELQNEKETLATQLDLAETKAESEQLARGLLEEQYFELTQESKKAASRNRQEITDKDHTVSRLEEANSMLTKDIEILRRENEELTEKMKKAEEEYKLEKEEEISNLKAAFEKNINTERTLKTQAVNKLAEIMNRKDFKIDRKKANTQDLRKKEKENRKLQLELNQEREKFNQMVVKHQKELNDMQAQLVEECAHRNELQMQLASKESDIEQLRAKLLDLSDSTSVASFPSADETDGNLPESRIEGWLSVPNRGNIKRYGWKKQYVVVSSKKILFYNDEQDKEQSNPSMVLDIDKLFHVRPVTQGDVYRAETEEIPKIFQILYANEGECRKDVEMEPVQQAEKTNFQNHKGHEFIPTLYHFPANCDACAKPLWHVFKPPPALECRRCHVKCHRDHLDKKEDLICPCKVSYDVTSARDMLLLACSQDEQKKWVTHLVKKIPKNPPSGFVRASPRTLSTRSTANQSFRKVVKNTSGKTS
In experiment [15] the target is Serine/threonine-protein kinase MRCK alpha (Homo sapiens, UniProt Q5VT25). It is filed as functional.
Experiment [16] concerns the target MAP/microtubule affinity-regulating kinase 3 (Homo sapiens, UniProt P27448). Format: functional.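 Note: MARK3 affinity measured as one member of a kinome panel.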
Experiment [17] concerns the target Serine/threonine-protein kinase PLK3 (Homo sapiens, UniProt Q9H4B4). Format: functional.
Experiment [18] has as its target Inhibitor of nuclear factor kappa-B kinase subunit alpha (Homo sapiens, UniProt O15111). It is filed as functional.
The target in experiment [19] is Serine/threonine-protein kinase BRSK1 (Homo sapiens, UniProt Q8TDC3). It is filed as functional.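 Note: measured within a kinome-wide kinase panel, with the target listed as KIAA1811.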

The values below come from ChEMBL document CHEMBL1201862, “PubChem BioAssay data set” (2004).

Each structure is given as a SMILES string. The source made the active and inactive calls.

Chain of MAP/microtubule affinity-regulating kinase 3 (P27448 whole entry): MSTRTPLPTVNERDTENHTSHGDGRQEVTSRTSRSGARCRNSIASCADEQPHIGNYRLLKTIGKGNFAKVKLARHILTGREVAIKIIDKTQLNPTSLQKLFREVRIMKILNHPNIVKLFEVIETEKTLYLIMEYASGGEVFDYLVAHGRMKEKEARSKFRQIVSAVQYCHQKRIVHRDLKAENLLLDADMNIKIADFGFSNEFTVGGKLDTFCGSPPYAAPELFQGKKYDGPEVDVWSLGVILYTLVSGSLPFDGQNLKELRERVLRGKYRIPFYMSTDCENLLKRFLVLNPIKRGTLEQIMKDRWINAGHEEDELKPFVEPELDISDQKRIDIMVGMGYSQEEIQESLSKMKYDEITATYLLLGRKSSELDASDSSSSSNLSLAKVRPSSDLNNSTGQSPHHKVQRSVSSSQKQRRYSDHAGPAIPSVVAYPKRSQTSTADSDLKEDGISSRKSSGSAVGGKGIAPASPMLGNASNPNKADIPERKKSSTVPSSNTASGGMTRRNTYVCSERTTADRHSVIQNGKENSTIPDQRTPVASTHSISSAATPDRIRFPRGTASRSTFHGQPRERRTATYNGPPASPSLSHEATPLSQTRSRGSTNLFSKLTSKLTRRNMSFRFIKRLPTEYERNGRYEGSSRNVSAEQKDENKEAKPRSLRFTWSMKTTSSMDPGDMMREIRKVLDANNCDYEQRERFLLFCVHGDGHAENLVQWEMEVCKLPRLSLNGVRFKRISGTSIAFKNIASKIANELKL
Chain of Inhibitor of nuclear factor kappa-B kinase subunit alpha (O15111 whole entry): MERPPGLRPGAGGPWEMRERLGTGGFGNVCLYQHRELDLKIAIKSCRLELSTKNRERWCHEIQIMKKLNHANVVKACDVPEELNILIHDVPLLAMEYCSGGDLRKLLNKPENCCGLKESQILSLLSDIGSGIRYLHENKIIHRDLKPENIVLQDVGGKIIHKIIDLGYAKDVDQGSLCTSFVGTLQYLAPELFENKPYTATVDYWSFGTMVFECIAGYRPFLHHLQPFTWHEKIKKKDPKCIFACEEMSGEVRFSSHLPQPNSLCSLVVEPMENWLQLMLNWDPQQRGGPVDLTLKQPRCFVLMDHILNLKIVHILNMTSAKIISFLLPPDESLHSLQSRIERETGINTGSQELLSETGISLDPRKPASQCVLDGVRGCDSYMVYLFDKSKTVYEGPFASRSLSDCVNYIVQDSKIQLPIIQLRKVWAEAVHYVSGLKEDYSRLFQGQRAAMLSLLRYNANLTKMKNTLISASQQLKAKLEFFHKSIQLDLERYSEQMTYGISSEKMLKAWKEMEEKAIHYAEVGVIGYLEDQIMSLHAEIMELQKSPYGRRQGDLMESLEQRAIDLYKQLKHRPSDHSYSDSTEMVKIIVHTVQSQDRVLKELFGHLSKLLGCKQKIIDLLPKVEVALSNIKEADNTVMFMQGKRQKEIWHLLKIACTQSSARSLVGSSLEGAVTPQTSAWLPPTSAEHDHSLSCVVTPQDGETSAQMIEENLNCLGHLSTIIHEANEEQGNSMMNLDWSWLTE
Chain of Serine/threonine-protein kinase D2 (Q9BZL6 whole entry): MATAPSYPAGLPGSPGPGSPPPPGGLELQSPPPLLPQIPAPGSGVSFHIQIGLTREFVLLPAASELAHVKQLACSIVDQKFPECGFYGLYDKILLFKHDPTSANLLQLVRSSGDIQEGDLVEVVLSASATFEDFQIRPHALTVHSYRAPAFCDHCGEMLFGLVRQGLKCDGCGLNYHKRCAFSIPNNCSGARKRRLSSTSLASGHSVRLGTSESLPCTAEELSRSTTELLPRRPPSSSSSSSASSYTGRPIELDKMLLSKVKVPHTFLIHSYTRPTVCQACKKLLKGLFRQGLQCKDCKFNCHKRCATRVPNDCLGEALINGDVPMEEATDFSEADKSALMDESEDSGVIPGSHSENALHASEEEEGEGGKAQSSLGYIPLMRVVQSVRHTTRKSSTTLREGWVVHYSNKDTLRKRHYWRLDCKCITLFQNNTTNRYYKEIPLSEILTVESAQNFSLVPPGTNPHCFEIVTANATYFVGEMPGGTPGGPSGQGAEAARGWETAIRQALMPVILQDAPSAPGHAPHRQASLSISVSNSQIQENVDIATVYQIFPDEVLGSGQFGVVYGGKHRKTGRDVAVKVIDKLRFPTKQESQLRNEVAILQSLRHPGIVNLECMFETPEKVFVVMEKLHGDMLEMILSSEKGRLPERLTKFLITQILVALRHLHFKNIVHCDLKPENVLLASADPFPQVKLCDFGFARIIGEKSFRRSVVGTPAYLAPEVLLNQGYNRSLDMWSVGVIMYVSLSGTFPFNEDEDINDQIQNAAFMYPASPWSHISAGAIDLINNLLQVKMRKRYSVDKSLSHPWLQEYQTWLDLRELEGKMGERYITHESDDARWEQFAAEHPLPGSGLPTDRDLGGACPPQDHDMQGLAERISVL

`Cc1ccc(C(=O)NC2(O)C(=O)c3ccccc3C2=O)cc1C`: the IC50 (as a rule, the midpoint of a concentration-inhibition curve) in experiment [1] was > 67 µM (not active); in experiment [2], 4.4 µM (active).
For the molecule `O=[N+]([O-])c1c(Nc2ccccn2)cc(Cl)c2nonc12`, the EC50 (as a rule, the concentration giving half of the maximal effect) in experiment [3] was 3.95 µM (inconclusive); in [4], 2.43 µM (active).
Regarding `CC[C@@H](C)[C@H](CNC)NC[C@@H](Cc1cccc2ccccc12)NCCc1cccc(C(F)(F)F)c1`, in experiment [5], the EC50 is > 54.7 µM (inactive).
As for `Cc1ccc(S(=O)(=O)/N=C2\C=C(Nc3cccc(C(=O)O)c3)C(=O)c3ccccc32)cc1`, the IC50 in [6] was 4.31 µM (active).
On to `CC(C)(CO)CNc1nccc(-c2c(-c3ccc(F)cc3)nc3c(CC4CC4)nccn23)n1`, for which the Ki – broadly, the dissociation constant of the complex between target and ligand, obtained from inhibition or displacement – in [7] is > 2 µM (inactive); in experiment [8], > 1.58 µM (inactive); in experiment [9], > 2 µM (inactive); in experiment [10], > 6.31 µM (inactive); in [11], > 10 µM (inactive); in experiment [12], > 7.94 µM (inactive). The Ki is > 5.01 µM (inactive) in experiment [13]; > 10 µM (inactive) in [14]; > 10 µM (inactive) in experiment [15]; > 6.31 µM (inactive) in experiment [16]; > 7.94 µM (inactive) in experiment [17]; > 3.98 µM (inactive) in experiment [18]. For the same molecule, the Ki in experiment [19] is > 10 µM (inactive).
